Test results from patent US9587005B2 (priority 2010, dated 2017).
*1 amine or outer side, *2 acyl side, *3 side chain or, on linkers, in order; H or OH if unused. Where a SMILES comes first, the peptide text is derived from it. Side-chain parts run from the residue outwards. [ ]: non-standard residue; d: D form. The star is where a group is joined. Phe(4-NH2) = Nc1ccc(C[C@H](N)C(=O)O)cc1; γGlu = O=C(O)[C@H](CCC(=O)[*:2])N[*:1]; Palmitoyl = CCCCCCCCCCCCCCCC(=O)*; Aib = CC(C)(N)C(=O)O

Experiments:
[1] = target: T1, GIP receptor (Homo sapiens, UniProt P48546); assay: cAMP induction, firefly luciferase reporter assay in HEK293 cells co-transfected with GIP receptor; format: cell-based
T1 sequence (P48546 22-466): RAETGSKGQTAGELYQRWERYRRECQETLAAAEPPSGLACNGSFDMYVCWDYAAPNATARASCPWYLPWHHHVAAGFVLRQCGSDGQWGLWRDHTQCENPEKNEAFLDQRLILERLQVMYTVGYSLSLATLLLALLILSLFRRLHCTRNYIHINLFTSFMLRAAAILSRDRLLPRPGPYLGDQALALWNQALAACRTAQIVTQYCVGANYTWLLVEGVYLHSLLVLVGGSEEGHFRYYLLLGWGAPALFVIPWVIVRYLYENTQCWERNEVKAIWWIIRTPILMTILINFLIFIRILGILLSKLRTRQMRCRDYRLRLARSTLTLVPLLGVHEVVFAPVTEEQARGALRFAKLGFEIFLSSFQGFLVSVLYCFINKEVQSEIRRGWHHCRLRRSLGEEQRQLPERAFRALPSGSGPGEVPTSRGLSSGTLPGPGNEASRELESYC

[2] = target: T2, GLP-1 receptor (Homo sapiens, UniProt P43220); assay: cAMP induction, firefly luciferase reporter assay in HEK293 cells co-transfected with GLP-1 receptor; format: cell-based; settings: EC50 (nM) at GLP-1 Receptor
T2 construct: expressed in transfected cells; host or cells: HEK293
T2 sequence (P43220 24-463): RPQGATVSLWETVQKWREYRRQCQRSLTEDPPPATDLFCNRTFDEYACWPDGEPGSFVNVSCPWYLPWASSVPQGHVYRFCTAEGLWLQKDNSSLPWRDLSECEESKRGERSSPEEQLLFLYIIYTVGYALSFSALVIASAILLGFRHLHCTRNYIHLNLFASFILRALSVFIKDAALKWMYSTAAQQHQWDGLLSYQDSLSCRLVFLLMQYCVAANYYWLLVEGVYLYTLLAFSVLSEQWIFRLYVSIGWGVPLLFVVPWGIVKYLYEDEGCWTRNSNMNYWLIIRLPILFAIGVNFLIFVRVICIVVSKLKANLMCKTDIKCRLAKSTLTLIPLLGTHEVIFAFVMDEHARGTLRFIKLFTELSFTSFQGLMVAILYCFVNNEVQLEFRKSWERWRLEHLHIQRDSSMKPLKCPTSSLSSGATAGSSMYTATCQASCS
From the text: This example describes an exemplary method of testing the biological activity of the peptides of the present disclosures, which method involves assaying cAMP synthesis.

[3] = EC50 (nM) at GIP Receptor, Table 9, Example 15

Question: For `CCCCCCCCCCCCCCCC(=O)N[C@@H](CCC(=O)NCCCC[C@H](NC(=O)[C@H](CC(=O)O)NC(=O)[C@H](CO)NC(=O)[C@@H](NC(=O)[C@H](Cc1ccccc1)NC(=O)[C@@H](NC(=O)CNC(=O)[C@H](CCC(N)=O)NC(=O)C(C)(C)NC(=O)[C@@H](N)Cc1c[nH]cn1)[C@@H](C)O)[C@@H](C)O)C(=O)N[C@@H](CO)C(=O)N[C@@H](CCCCN)C(=O)N[C@@H](Cc1ccc(O)cc1)C(=O)N[C@@H](CC(C)C)C(=O)N[C@@H](CC(=O)O)C(=O)N[C@@H](CCC(=O)O)C(=O)N[C@@H](CCCNC(=N)N)C(=O)N[C@@H](CCCNC(=N)N)C(=O)N[C@@H](C)C(=O)NC(C)(C)C(=O)N[C@@H](CCC(=O)O)C(=O)N[C@@H](Cc1ccccc1)C(=O)N[C@H](C(=O)N[C@@H](CCC(N)=O)C(=O)N[C@@H](Cc1c[nH]c2ccccc12)C(=O)N[C@@H](CC(C)C)C(=O)N[C@@H](CC(C)C)C(=O)N[C@@H](CC(=O)O)C(=O)NCC(=O)NCC(=O)N1CCC[C@H]1C(=O)N[C@@H](CO)C(=O)N[C@@H](CO)C(=O)NCC(=O)N[C@@H](C)C(=O)N1CCC[C@H]1C(=O)N1CCC[C@H]1C(=O)N1CCC[C@H]1C(=O)N[C@@H](CO)C(N)=O)C(C)C)C(=O)O` [SEQ ID NO: 37] (H-H[Aib]QGTFTSDK([γGlu-Palmitoyl])SKYLDERRA[Aib]EFVQWLLDGGPSSGAPPPS-NH2; N-terminus assumed), which EC50 ([1]; GIP (0.01), Table 8, Example 14, activity at the GIP receptor) is on record?
Answer: 0.003 nM

Question: For `CCCCCCCCCCCCCCCC(=O)NCCCC[C@H](NC(=O)[C@H](CO)NC(=O)[C@@H]1CCCN1C(=O)[C@@H]1CCCN1C(=O)[C@@H]1CCCN1C(=O)[C@H](C)NC(=O)CNC(=O)[C@H](CO)NC(=O)[C@H](CO)NC(=O)[C@@H]1CCCN1C(=O)CNC(=O)CNC(=O)[C@H](C)NC(=O)[C@H](CC(C)C)NC(=O)[C@H](CC(C)C)NC(=O)[C@H](Cc1c[nH]c2ccccc12)NC(=O)[C@H](CC(N)=O)NC(=O)[C@@H](NC(=O)[C@H](Cc1ccccc1)NC(=O)[C@H](CCC(=O)O)NC(=O)C(C)(C)NC(=O)[C@H](C)NC(=O)[C@H](C)NC(=O)[C@H](CCC(N)=O)NC(=O)[C@H](CCCCN)NC(=O)[C@H](CC(=O)O)NC(=O)[C@H](CC(C)C)NC(=O)[C@H](Cc1ccc(O)cc1)NC(=O)[C@@H](NC(=O)[C@H](CO)NC(=O)[C@H](Cc1ccc(O)cc1)NC(=O)[C@H](CC(=O)O)NC(=O)[C@H](CO)NC(=O)[C@@H](NC(=O)[C@H](Cc1ccccc1)NC(=O)[C@@H](NC(=O)CNC(=O)[C@H](CCC(=O)O)NC(=O)C(C)(C)NC(=O)[C@@H](N)Cc1ccc(O)cc1)[C@@H](C)O)[C@@H](C)O)[C@@H](C)CC)C(C)C)C(=O)NCC(N)=O` [SEQ ID NO: 139], which EC50 [1, 3] is on record?
Answer: 0.001 nM

Question: What about the EC50 ([2]; Table 9, Example 15) of the same compound?
Answer: 0.005 nM

Question: With `CCCCCCCCCCCCCCCCC(CC(=O)NCCCC[C@H](NC(=O)[C@H](CO)NC(=O)[C@@H]1CCCN1C(=O)[C@@H]1CCCN1C(=O)[C@@H]1CCCN1C(=O)[C@H](C)NC(=O)CNC(=O)[C@H](CO)NC(=O)[C@H](CO)NC(=O)[C@@H]1CCCN1C(=O)CNC(=O)CNC(=O)[C@H](C)NC(=O)[C@H](CC(C)C)NC(=O)[C@H](CC(C)C)NC(=O)[C@H](Cc1c[nH]c2ccccc12)NC(=O)[C@H](CC(N)=O)NC(=O)[C@@H](NC(=O)[C@H](Cc1ccccc1)NC(=O)[C@H](CCC(=O)O)NC(=O)C(C)(C)NC(=O)[C@H](C)NC(=O)[C@H](C)NC(=O)[C@H](CCC(N)=O)NC(=O)[C@H](CCCCN)NC(=O)[C@H](CC(=O)O)NC(=O)[C@H](CC(C)C)NC(=O)[C@H](Cc1ccc(O)cc1)NC(=O)[C@@H](NC(=O)[C@H](CO)NC(=O)[C@H](Cc1ccc(O)cc1)NC(=O)[C@H](CC(=O)O)NC(=O)[C@H](CO)NC(=O)[C@@H](NC(=O)[C@H](Cc1ccccc1)NC(=O)[C@@H](NC(=O)CNC(=O)[C@H](CCC(=O)O)NC(=O)C(C)(C)NC(=O)[C@@H](N)Cc1ccc(O)cc1)[C@@H](C)O)[C@@H](C)O)[C@@H](C)CC)C(C)C)C(=O)NCC(N)=O)C(=O)O` (stereo partly shown) [SEQ ID NO: 140] as the compound, how does the EC50 [1, 3] read?
Answer: 0.001 nM

Question: What about the EC50 ([2]; Table 9, Example 15) of the same compound?
Answer: 0.001 nM

Question: What does the source list for `CCCCCCCCCCCCCCCCC(CC(=O)NCCC(=O)NCCCC[C@H](NC(=O)[C@H](CO)NC(=O)[C@@H]1CCCN1C(=O)[C@@H]1CCCN1C(=O)[C@@H]1CCCN1C(=O)[C@H](C)NC(=O)CNC(=O)[C@H](CO)NC(=O)[C@H](CO)NC(=O)[C@@H]1CCCN1C(=O)CNC(=O)CNC(=O)[C@H](C)NC(=O)[C@H](CC(C)C)NC(=O)[C@H](CC(C)C)NC(=O)[C@H](Cc1c[nH]c2ccccc12)NC(=O)[C@H](CC(N)=O)NC(=O)[C@@H](NC(=O)[C@H](Cc1ccccc1)NC(=O)[C@H](CCC(=O)O)NC(=O)C(C)(C)NC(=O)[C@H](C)NC(=O)[C@H](C)NC(=O)[C@H](CCC(N)=O)NC(=O)[C@H](CCCCN)NC(=O)[C@H](CC(=O)O)NC(=O)[C@H](CC(C)C)NC(=O)[C@H](Cc1ccc(O)cc1)NC(=O)[C@@H](NC(=O)[C@H](CO)NC(=O)[C@H](Cc1ccc(O)cc1)NC(=O)[C@H](CC(=O)O)NC(=O)[C@H](CO)NC(=O)[C@@H](NC(=O)[C@H](Cc1ccccc1)NC(=O)[C@@H](NC(=O)CNC(=O)[C@H](CCC(=O)O)NC(=O)C(C)(C)NC(=O)[C@@H](N)Cc1ccc(O)cc1)[C@@H](C)O)[C@@H](C)O)[C@@H](C)CC)C(C)C)C(=O)NCC(N)=O)C(=O)O` (stereo partly shown) [SEQ ID NO: 141]?
Answer: EC50 [1, 3]: 0.002 nM; EC50 ([2]; Table 9, Example 15): 0.001 nM

Question: How did the EC50 [1, 3] turn out when `CCCCCCCCCCCCCCCCCCC(CC(=O)NCCCC[C@H](NC(=O)[C@H](CO)NC(=O)[C@@H]1CCCN1C(=O)[C@@H]1CCCN1C(=O)[C@@H]1CCCN1C(=O)[C@H](C)NC(=O)CNC(=O)[C@H](CO)NC(=O)[C@H](CO)NC(=O)[C@@H]1CCCN1C(=O)CNC(=O)CNC(=O)[C@H](C)NC(=O)[C@H](CC(C)C)NC(=O)[C@H](CC(C)C)NC(=O)[C@H](Cc1c[nH]c2ccccc12)NC(=O)[C@H](CC(N)=O)NC(=O)[C@@H](NC(=O)[C@H](Cc1ccccc1)NC(=O)[C@H](CCC(=O)O)NC(=O)C(C)(C)NC(=O)[C@H](C)NC(=O)[C@H](C)NC(=O)[C@H](CCC(N)=O)NC(=O)[C@H](CCCCN)NC(=O)[C@H](CC(=O)O)NC(=O)[C@H](CC(C)C)NC(=O)[C@H](Cc1ccc(O)cc1)NC(=O)[C@@H](NC(=O)[C@H](CO)NC(=O)[C@H](Cc1ccc(O)cc1)NC(=O)[C@H](CC(=O)O)NC(=O)[C@H](CO)NC(=O)[C@@H](NC(=O)[C@H](Cc1ccccc1)NC(=O)[C@@H](NC(=O)CNC(=O)[C@H](CCC(=O)O)NC(=O)C(C)(C)NC(=O)[C@@H](N)Cc1ccc(O)cc1)[C@@H](C)O)[C@@H](C)O)[C@@H](C)CC)C(C)C)C(=O)NCC(N)=O)C(=O)O` (stereo partly shown) [SEQ ID NO: 142] was run?
Answer: 0.001 nM

Question: And the EC50 ([2]; Table 9, Example 15)?
Answer: 0.004 nM

Question: What does the source list for `CCCCCCCCCCCCCCCC(=O)N[C@@H](CCC(=O)N[C@@H](CCC(=O)Nc1ccc(C[C@H](NC(=O)[C@H](CC(=O)O)NC(=O)[C@H](CO)NC(=O)[C@@H](NC(=O)[C@H](Cc2ccccc2)NC(=O)[C@@H](NC(=O)CNC(=O)[C@H](CCC(=O)O)NC(=O)C(C)(C)NC(=O)[C@@H](N)Cc2ccc(O)cc2)[C@@H](C)O)[C@@H](C)O)C(=O)N[C@@H](CO)C(=O)N[C@H](C(=O)N[C@@H](Cc2ccc(O)cc2)C(=O)N[C@@H](CC(C)C)C(=O)N[C@@H](CC(=O)O)C(=O)N[C@@H](CCCCN)C(=O)N[C@@H](CCC(N)=O)C(=O)N[C@@H](C)C(=O)N[C@@H](C)C(=O)NC(C)(C)C(=O)N[C@@H](CCC(=O)O)C(=O)N[C@@H](Cc2ccccc2)C(=O)N[C@H](C(=O)N[C@@H](CC(N)=O)C(=O)N[C@@H](Cc2c[nH]c3ccccc23)C(=O)N[C@@H](CC(C)C)C(=O)N[C@@H](CC(C)C)C(=O)N[C@@H](C)C(=O)NCC(=O)NCC(=O)N2CCC[C@H]2C(=O)N[C@@H](CO)C(=O)N[C@@H](CO)C(=O)NCC(=O)N[C@@H](C)C(=O)N2CCC[C@H]2C(=O)N2CCC[C@H]2C(=O)N2CCC[C@H]2C(=O)N[C@@H](CO)C(N)=O)C(C)C)[C@@H](C)CC)cc1)C(=O)O)C(=O)O` [SEQ ID NO: 143] (H-Y[Aib]EGTFTSD[Phe(4-NH2)]([γGlu-γGlu-Palmitoyl])SIYLDKQAA[Aib]EFVNWLLAGGPSSGAPPPS-NH2; N-terminus assumed)?
Answer: EC50 [1, 3]: 0.003 nM; EC50 ([2]; Table 9, Example 15): 0.002 nM

Question: With `CCCCCCCCCCCCCCCC(=O)N[C@@H](CCC(=O)NCCCC[C@H](NC(=O)[C@H](CC(=O)O)NC(=O)[C@H](CO)NC(=O)[C@@H](NC(=O)[C@H](Cc1ccccc1)NC(=O)[C@@H](NC(=O)CNC(=O)[C@H](CCC(=O)O)NC(=O)C(C)(C)NC(=O)[C@@H](N)Cc1c[nH]cn1)[C@@H](C)O)[C@@H](C)O)C(=O)N[C@@H](CO)C(=O)N[C@@H](CCCCN)C(=O)N[C@@H](Cc1ccc(O)cc1)C(=O)N[C@@H](CC(C)C)C(=O)N[C@@H](CC(=O)O)C(=O)N[C@@H](CCC(=O)O)C(=O)N[C@@H](CCCNC(=N)N)C(=O)N[C@@H](CCCNC(=N)N)C(=O)N[C@@H](C)C(=O)NC(C)(C)C(=O)N[C@@H](CCC(=O)O)C(=O)N[C@@H](Cc1ccccc1)C(=O)N[C@H](C(=O)N[C@@H](CCC(N)=O)C(=O)N[C@@H](Cc1c[nH]c2ccccc12)C(=O)N[C@@H](CC(C)C)C(=O)N[C@@H](CC(C)C)C(=O)N[C@@H](CC(=O)O)C(=O)N[C@H](C(N)=O)[C@@H](C)O)C(C)C)C(=O)O` [compound 40] (H-H[Aib]EGTFTSDK([γGlu-Palmitoyl])SKYLDERRA[Aib]EFVQWLLDT-NH2; N-terminus assumed) as the compound, how does the EC50 ([1]; EC50 (nM) at GIP Receptor, Table 4, Example 9, composite of multiple different activity assays) read?
Answer: 0.024 nM

Question: And the EC50 ([2]; Table 4, Example 9, composite of multiple different activity assays)?
Answer: 0.006 nM
